Data set [1] concerns J774.A1 cell lines (macrophages). In words: Cytotoxicity against J774.A1 macrophages, MTT assay. In kind it is cell-based, murine (BALB/c). The settings on record: Mus musculus, read-out: IC50 (concentration required to give 50% death of cells). The procedure: Initially the cytotoxic profile of compounds 9a–e and 10a–e against J774.A1 cell lines (i.e., BALB/c macrophage cell lines) was investigated. Therefore, these cells were exposed to different concentrations (0.1–100 μM) of compounds 9a–e and 10a–e and the cytotoxic effect was measured after 48 h of drug incubation, by using MTT-based assay. The cytotoxicity was expressed as IC50 values (that means the concentration of a drug that kills half of the tested cells in culture). As depicted in Table 1, most compounds have shown low cytotoxic activity with IC50 > 100 μM.
These adherent-phenotype macrophage lines were cultured in Dulbecco's Modified Eagle's medium (DMEM, Sigma) supplemented with 10% FBS at 37 °C with 95% humidity and 5% CO2.
To evaluate the cytotoxic activity against the J774.A1 cell line, the host cells were plated in 96-well cell culture plate (flat bottom, clear, Corning) at 2 × 10^5 cells per well in complete culture medium 10% FBS at 37 °C. After 1 h wells were washed with warm Hank's Balanced Salt solution (HBSS) to remove non-adherent cells, leaving approximately 10^5 adherent macrophages. All cultures were done in DMEM complete supplemented with 10% FBS. The compounds and pentamidine were added at serial concentrations (0.1–100 μM). The cells were also cultured with medium free from compounds or vehicle (basal growth control) or in media with DMSO 0.1% (vehicle control). Positive control (dead cells) was obtained by cellular lysis with 1% of Triton 100× in DMEM complete (because it is a detergent in this concentration, Triton 100× destabilizes the cell membrane of macrophages, causing cell death). The cytotoxicity was evaluated by the MTT assay.[31] This assay consists of indirectly measuring cell viability through the mitochondrial enzymatic activity of macrophages. Viable cells are capable of reducing MTT to formazan. For this, after the incubation of plate for 48 h, 100 μL of MTT solution (0.5 mg mL^−1, in DMEM medium) was added per well, and the plate was incubated for 1 h. Then, the supernatant of each well was retired and was added 150 μL of DMSO. The absorbance was determined at 570 nm in a microplate reader. The cell viability of the cultures treated with the compounds was compared to the death pattern obtained in the control cultures. In the positive control, the cell death was confirmed when the optical density was equal to zero, confirming that the cells were not viable. Data obtained from experiments were expressed as the mean ± standard error of the mean (mean ± S.E.M.) and statistical differences between the treated and the vehicle groups of experiments were evaluated by ANOVA and Dunnett hoc tests.

Data set [2] relates to L. amazonensis intracellular amastigotes. In words: Leishmanicidal activity against intracellular amastigote forms of L. amazonensis in J774.A1 macrophages. In kind it is cell-based. The settings on record: for Effect on the number of intracellular amastigotes: L. amazonensis, screening concentration 30 μM; for IC50 / Emax: Leishmania amazonensis; for IC50: read-out: IC50 (concentration required to give 50% death of parasites); for Emax: maximum toxicity vs 0.1% DMSO group, read-out: Maximum effect (% ± S.E.M.). The procedure:
Considering that L. amazonensis is one of the causative species of cutaneous leishmaniasis in Brazil,[20] we have investigated the leishmanicidal effect of compounds 9a–e and 10a–e against L. amazonensis amastigotes forms. Initially, all compounds were evaluated at 30 μM. […] Then, they were selected to determine their IC50 value for intracellular amastigote forms of L. amazonensis.
(§1) Promastigotes of L. amazonensis (MHOM/BR/77/LTB0016) were obtained from Dr Eduardo Caio Torres dos Santos at Oswaldo Cruz Institute – Fiocruz. Promastigotes of L. braziliensis (MHOM/BR/01/BA788) were obtained from Dr Valéria de Matos Borges at Gonçalo Moniz Research Center – Fiocruz. The parasites were maintained in vitro in Schneider's medium, supplemented with 10% FBS and 2% human urine at 27 °C in BOD incubator.
(§2) Initially, compounds 9a–e and 10a–e were evaluated at screening concentration of 30 μM against L. amazonensis, using DMSO 0.03% as vehicle control, since this was the DMSO concentration (vehicle) remaining in each well with the tested compounds. […] Vehicle control used was DMSO 0.1%, since this was the concentration of DMSO (vehicle) existing in each well with the tested substances in the highest concentration used.
(§3) To assess the activity of the test derivatives against the amastigote stage of L. amazonensis and L. braziliensis the model of infection in coverglass was realized.[31] The murine macrophages (J774.A1 cell line) were prepared in 24-well cell culture plate (flat bottom, clear, Corning) at 2 × 10^5 adherent cells per well, infected with 2 × 10^6 promastigotes in glass coverslips placed inside 1 mL medium culture. The cultures were cultured or not with the test derivatives or reference drugs, and kept for 24 h at 37 °C, 5% CO2. After 24 h of incubation, the coverslips were washed, stained with Giemsa–May–Grünwald, and intracellular amastigotes were counted in 100 macrophages, using an optical microscope, on the objective of 100×. Thus, during the counting of 100 macrophages, the amount of amastigotes present within these defence cells was also determined. Data obtained from in vitro experiments were expressed as the mean ± S.E.M. of duplicate cultures of representative assays. Statistical differences between the treated and the control groups were evaluated by ANOVA and Dunnett hoc tests. Differences with a p value < 0.05 or lower were considered significant.

Data set [3] relates to L. braziliensis intracellular amastigotes. In words: Leishmanicidal activity against intracellular amastigote forms of L. braziliensis in J774.A1 macrophages. It is filed as cell-based. The settings on record: Leishmania braziliensis; for IC50: read-out: IC50 (concentration required to give 50% death of parasites); for Emax: maximum toxicity vs 0.1% DMSO group, read-out: Maximum effect (% ± S.E.M.).
Text: Further, the leishmanicidal activity against intracellular amastigotes forms of L. braziliensis were also investigated (Table 2).
as §1, §2, §3

The next data set concerns L. amazonensis. Kind of data set: Murine model of cutaneous leishmaniasis induced by L. amazonensis (efficacy). The settings on record: 30 μmol per kg per day × 28 days. It is filed as in vivo, BALB/c mice. The procedure:
So, BALB/c mice infected with L. amazonensis were treated during 28 days with compound 10e (30 μmol per kg per day, i.p.) or with the standards miltefosine (30 μmol per kg per day, p.o.) and meglumine antimoniate (30 μmol per kg per day, i.p.).
(§4) This study (protocol number 2013.02) was approved by the Ethics Committee for Animal Experimentation of the Federal University of Alagoas (Brazil). All animals received humane care in compliance with the ‘Principles of laboratory animal care’ formulated by the National Society for Medical Research and the ‘Guide for the care and use of laboratory animals’ prepared by the National Academy of Sciences (Washington, DC). Then, 1 × 10^5 stationary promastigotes (5 days of culture in Schneider's medium) of L. amazonensis were inoculated subcutaneously into the right ear dermis of 6 week-old female BALB/c mice weighing ca. 20 g. and later treated with 10e (i.p.), miltefosine (p.o.) or meglumine antimoniate (i.p.) at 30 μmol kg^−1 × 28 days. The vehicle to solubilize 10e (LASSBio-1736) and standard drugs was Tween 20 (50 μL) and sterile water for injection, which was also administrated by i.p. route in two controls groups (non-infected control and infected control). The lesion size was measured using a paquimeter.[32] The parasite loads of infected ears and draining lymph nodes were determined using a quantitative limiting-dilution assay.[33] Toxicity was also evaluated due to alterations on spleen weight and by biochemistry dosages in plasma, performed according to the manufacturer's instructions (Doles, BRA). Data obtained from experiments were expressed as the mean ± S.E.M. and statistical differences between the treated and the vehicle groups of experiments were evaluated by ANOVA and Dunnett hoc tests.

Data set [4] can be described thus: Toxicity in treated infected mice (survival, spleen weight, serum biochemistry). It is filed as in vivo. The settings on record: infected BALB/c mice, 30 μmol kg−1 daily for 28 days, n = 5. The procedure:
The survival of BALB/c mice infected with L. amazonensis untreated and treated during 28 days with the daily dose of 30 μmol kg^−1 with meglumine antimoniate, miltefosine and 10e (LASSBio-1736) was analyzed. Animal mortality was not observed for the groups treated with 10e and miltefosine, while 20% of death was identified from the 25th day of treatment with meglumine antimoniate (Fig. 11). After the end of treatment, the animal's toxicity was investigated looking for any alterations on spleen weight and on alanine aminotransferase (ALT), aspartate aminotransferase (AST), creatinine (CREA) and urea serum levels.
as §4

The mark [5] stands for this setting: J774.A1 macrophages, 48 h incubation, MTT, 0.1–100 μM.
The mark [6] stands for this setting: L. amazonensis amastigotes, ratio of IC50 values.
Where [7] appears, read: J774.A1, L. amazonensis intracellular amastigotes, 24 h.
Setting [8] is: J774.A1, L. amazonensis intracellular amastigotes.
Setting [9] is: J774.A1, L. braziliensis intracellular amastigotes, 24 h.
The mark [10] stands for this setting: J774.A1, L. braziliensis intracellular amastigotes.

Read-outs that look alike come from different tables or passages of the source.

The values that follow come from paper PMC9050848, “Carbamoyl-N-aryl-imine-urea: a new framework to obtain a putative leishmanicidal drug-candidate” (RSC Advances, 2020).

Regarding `O=C(N/N=C/c1ccc([N+](=O)[O-])o1)NNC(=O)c1ccc(Cl)cc1` [LASSBio-1491 (9a), 4-chloro-phenylcarbamoyl-N-5-nitrofuranimine-urea], the IC50 in data set [1] (setting [5]) is over 100 µM.
The same measure, in the same setting: then `O=C(N/N=C/c1ccc([N+](=O)[O-])o1)NNC(=O)c1ccc(Cl)cc1Cl` [LASSBio-1703 (10a), 2,4-dichloro-phenylcarbamoyl-N-5-nitrofuranimine-urea], with over 100 µM.
Regarding `O=C(N/N=C/c1ccccc1O)NNC(=O)c1ccc(Cl)cc1` [LASSBio-1704 (9b), 4-chloro-phenylcarbamoyl-N-2-hydroxyphenylimine-urea], the IC50 is over 100 µM in data set [1] (setting [5]), 85.3 ± 5 µM in data set [2] (setting [7]) and over 100 µM in data set [3] (setting [9]). Moreover, the “Times less potent than miltefosine” value in data set [2] (setting [6]) was about 4.0 times. Also, the “Times less potent than pentamidine” value in data set [2] (setting [6]) is reported as “about 2.5 times”. Also, the “Effect on the number of intracellular amastigotes” value (“Effect on the number” for short) in data set [2] is reported as “decreased the number of intracellular amastigotes”. The Emax was determined as 55.6 ± 1.4% in data set [2] (setting [8]) and 48.1 ± 4.5% in data set [3] (setting [10]).
For the compound `O=C(N/N=C/c1ccccc1O)NNC(=O)c1ccc(Cl)cc1Cl` [LASSBio-1705 (10b), 2,4-dichloro-phenylcarbamoyl-N-2-hydroxyphenylimine-urea], the IC50 in data set [1] (setting [5]) is 78.1 ± 4.5 µM.
Regarding `O=C(N/N=C/c1ccc(O)cc1)NNC(=O)c1ccc(Cl)cc1` [LASSBio-1706 (9d), 4-chloro-phenylcarbamoyl-N-4-hydroxyphenylimine-urea], the IC50 in data set [1] (setting [5]) is 86.2 ± 8.7 µM; in data set [2] (setting [7]) it was over 100 µM; in data set [3] (setting [9]), 3.6 ± 0.6 µM. Also, the “Effect on the number” value in data set [2] is given as “decreased the number of intracellular amastigotes”. The Emax in data set [3] (setting [10]) was found to be 70.4 ± 1.9%.
In the case of `O=C(N/N=C/c1ccc(O)cc1)NNC(=O)c1ccc(Cl)cc1Cl` [LASSBio-1707 (10d), 2,4-dichloro-phenylcarbamoyl-N-4-hydroxyphenylimine-urea], the IC50 in data set [1] (setting [5]), in data set [2] (setting [7]) and in data set [3] (setting [9]) was over 100 µM each time. The “Effect on the number” value in data set [2] is recorded as “decreased the number of intracellular amastigotes”. In addition, the Emax in data set [2] (setting [8]) stood at 44.4 ± 0.2%.
With `O=C(N/N=C/c1cccc(O)c1)NNC(=O)c1ccc(Cl)cc1Cl` [LASSBio-1708 (10c), 2,4-dichloro-phenylcarbamoyl-N-3-hydroxyphenylimine-urea], the IC50 in data set [1] (setting [5]), in data set [2] (setting [7]) and in data set [3] (setting [9]) was over 100 µM throughout. Besides, the “Effect on the number” value in data set [2] is given as “decreased the number of intracellular amastigotes”. The Emax in data set [2] (setting [8]) was 31 ± 1.7%.
Take `O=C(N/N=C/c1cccc(O)c1)NNC(=O)c1ccc(Cl)cc1` [LASSBio-1709 (9c), 4-chloro-phenylcarbamoyl-N-3-hydroxyphenylimine-urea]: the IC50 in data set [1] (setting [5]) is 85.2 ± 2.3 µM.
The same measure, in the same setting: then `O=C(N/N=C/c1ccc(C(F)(F)F)cc1)NNC(=O)c1ccc(Cl)cc1` [LASSBio-1737 (9e)], with over 100 µM.
Regarding `CCCCCCCCCCCCCCCCOP(=O)([O-])OCC[N+](C)(C)C` [Miltefosine, reference compound], the IC50 was over 100 µM in data set [1] (J774.A1, 48 h); 22 ± 1.8 µM in data set [2] (J774.A1, 24 h); 32.1 ± 1.1 µM in data set [3] (J774.A1, 24 h). The Emax is 58.1 ± 4.9% in data set [2] (setting [8]) and 84 ± 1.5% in data set [3] (setting [10]). Also, the “Appearance of lesions on the first day after end of treatment (photographs)” value with L. amazonensis is “complete healing of the nodules and ulcers”. The “Lesion sizes of infected ear” value in the data set on L. amazonensis (10e and meglumine antimoniate i.p., miltefosine p.o.) is given as “reduced the lesion sizes of infected ear”. Also, in the data set on L. amazonensis (limiting-dilution assay), the “Parasite load in infected ear” value was “decreased parasite load in infected ear”. Moreover, the Animal mortality entry in data set [4] was “not observed”.
As for `N=C(N)c1ccc(OCCCCCOc2ccc(C(=N)N)cc2)cc1` [Pentamidine, reference compound], the IC50 in data set [1] (setting [5]) was determined as 35.5 ± 3.4 µM; in data set [2] (setting [7]), 32.8 ± 4.6 µM; in data set [3] (setting [9]), 78.4 ± 4.7 µM. The results for the Emax in data set [2] (setting [8]) and in data set [3] (setting [10]) were 59.1 ± 5.6% and 61.7 ± 2.2%, respectively.
As to “meglumine antimoniate [reference compound]”, in the data set on L. amazonensis, the “Appearance of lesions on the first day after end of treatment (photographs)” value is “the lesions showed an intense swelling and ulcerated”. The Animal mortality in data set [4] was found to be 20%.
